Experimental findings from patent publication US20240226343A1, “NEUROPEPTIDE Y1 RECEPTOR (NPY1R) TARGETED THERAPEUTICS AND USES THEREOF” (RADIONETICS ONCOLOGY, INC., priority 2022, published 2024) are described below.

Like-named read-outs stand apart in the source and are kept apart here. Bounds are passed on as bounds.

The target of the assay is T1, hNPY1R (Homo sapiens, UniProt P25929).
T1 construct: SK-N-MC cells endogenously expressing the NPY1R receptor; endogenous in cells; host or cells: SK-N-MC cells (crude membrane fractions)
T1 sequence (P25929 1-384): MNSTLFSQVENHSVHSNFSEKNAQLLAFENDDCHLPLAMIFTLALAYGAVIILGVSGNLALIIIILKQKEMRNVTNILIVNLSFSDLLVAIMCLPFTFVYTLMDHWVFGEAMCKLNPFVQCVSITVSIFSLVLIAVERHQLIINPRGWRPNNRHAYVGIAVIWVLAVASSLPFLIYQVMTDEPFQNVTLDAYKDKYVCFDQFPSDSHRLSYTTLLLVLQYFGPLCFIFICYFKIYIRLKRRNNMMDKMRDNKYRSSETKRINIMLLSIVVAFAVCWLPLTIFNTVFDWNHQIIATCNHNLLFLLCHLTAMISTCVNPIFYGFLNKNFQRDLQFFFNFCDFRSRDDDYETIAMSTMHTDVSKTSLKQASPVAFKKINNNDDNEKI
The experiment in a line: NPY1R binding assay: SK-N-MC membranes, [125I]-Peptide YY (human) competition. Conditions: SK-N-MC membranes. As to the method: Crude membrane fractions are prepared from SK-N-MC cells endogenously expressing the NPY1R receptor. The cells are grown to 85-100% confluence on standard tissue culture dishes in Eagle's Minimum Essential Medium supplemented with 10% dialyzed FBS. To prepare membranes, cells are scraped and collected in 1× Dulbecco's phosphate buffered saline and then pelleted at 1000 RPM's. The cell pellet is reconstituted in membrane preparation buffer (20 mM HEPES, 6 mM MgCl2 and 1 mM EGTA, protease inhibitor tablets, pH 7.4) and placed in a cell disruption vessel at 1000 PSI for 30 minutes on ice. The pressurized contents are then released and spun down at 1000 RPMs and the supernatant is collected and further centrifuged at 15,000 RPMs to pellet the membranes. The membrane pellet is resuspended in membrane preparation buffer, snap frozen and stored at −80° C. for later use.
[…] Assay contents are then filtered through unifilter GF/C microplates and washed with 9×400 μl of cold wash buffer (25 mM HEPES, 5 mM MgCl2, 1 mM CaCl2), 500 mM NaCl, 0.1% Tween-20, pH 7.4). Assay plates are read using a Top Count NXT and Ki values for compounds are determined using a GraphPad Prism 6 non-linear regression analysis.

The mark [1] stands for this setting: data obtained after 60 minutes at 37° C., [125I]-Peptide YY 0.05 nM, read-out: hNPY1R binding Ki* †.
Setting [2] is: data obtained after 120 minutes at rt, [125I]-Peptide YY, read-out: hNPY.R binding Ki* ††.

On to `CCC(=O)NCCNC(=O)/N=C(/N)NCCC[C@@H](NC(=O)C(c1ccccc1)c1cccc(OCCCCNC(=O)CCC(NC(=O)CN2CCN(CC(=O)O)CCN(CC(=O)O)CCN(CC(=O)O)CC2)C(=O)O)c1)C(=O)NCc1ccc(O)cc1` (single isomer, unassigned) [Compound 110A], for which the Ki under setting [1] lay within 10 to 100 nM.
The same measure, in the same setting: for `CCC(=O)NCCNC(=O)/N=C(/N)NCCC[C@@H](NC(=O)C(c1ccccc1)c1cccc(OCCOCCOCCOCCOCCNC(=O)CN2CCN(CC(=O)O)CCN(CC(=O)O)CCN(CC(=O)O)CC2)c1)C(=O)NCc1ccc(O)cc1` (single isomer, unassigned) [Compound 101A] the value was less than 10 nM.
With `CCC(=O)NCCNC(=O)/N=C(/N)NCCC[C@@H](NC(=O)C(c1ccccc1)c1cccc(OCCCCNC(=O)NCCONC(=O)CN2CCN(CC(=O)O)CCN(CC(=O)O)CCN(CC(=O)O)CC2)c1)C(=O)NCc1c(F)cc(O)cc1F` (single isomer, unassigned) [Compound 168], under setting [2], the inhibition constant (Ki) was less than 10 nM.
The same measure, in the same setting: for `CCC(=O)NCCNC(=O)/N=C(/N)NCCC[C@@H](NC(=O)C(c1ccccc1)c1ccc(NCCCNc2c(NCCNC(=O)[C@@H](CN)NC(=O)CN3CCN(CC(=O)O)CCN(CC(=O)O)CCN(CC(=O)O)CC3)c(=O)c2=O)cc1)C(=O)NCc1ccc(O)cc1` (single isomer, unassigned) [Compound 137A] the value was less than 10 nM; for `CCC(=O)NCCNC(=O)/N=C(/N)NCCC[C@@H](NC(=O)C(c1ccccc1)c1ccc(NCCNC(=O)[C@H](N)CCCNC(=O)CN2CCN(CC(=O)O)CCN(CC(=O)O)CCN(CC(=O)O)CC2)cc1)C(=O)NCc1ccc(O)cc1` (single isomer, unassigned) [Compound 143A], less than 10 nM.
On the same count and under the same terms, the figure for `CCC(=O)NCCNC(=O)/N=C(/N)NCCC[C@@H](NC(=O)C(c1ccccc1)c1ccc(NCCCNC(=O)[C@H](N)CCCCNC(=O)CN2CCN(CC(=O)O)CCN(CC(=O)O)CCN(CC(=O)O)CC2)cc1)C(=O)NCc1ccc(O)cc1` (single isomer, unassigned) [Compound 132B] is less than 10 nM; for `CCC(=O)NCCNC(=O)/N=C(/N)NCCC[C@@H](NC(=O)C(c1ccccc1)c1ccc(NCCCNC(=O)[C@@H](CCCNC(=O)CN2CCN(CC(=O)O)CCN(CC(=O)O)CCN(CC(=O)O)CC2)NC(=O)CCCc2ccc(I)cc2)cc1)C(=O)NCc1ccc(O)cc1` (single isomer, unassigned) [Compound 153] it is less than 10 nM; for `CCC(=O)NCCNC(=O)/N=C(/N)NCCC[C@@H](NC(=O)C(c1ccccc1)c1cccc(OCCCCNC(=O)CCNC(=O)CN2CCN(CC(=O)O)CCN(CC(=O)O)CCN(CC(=O)O)CC2)c1)C(=O)NCc1c(F)cc(O)cc1F` (single isomer, unassigned) [Compound 162A] it is less than 10 nM.
Consider `CCC(=O)NCCNC(=O)/N=C(/N)NCCC[C@@H](NC(=O)C(c1ccccc1)c1cccc(OCCOCCOCCOCCNC(=O)CN2CCN(CC(=O)O)CCN(CC(=O)O)CCN(CC(=O)O)CC2)c1)C(=O)NCc1ccc(O)cc1` (stereo partly drawn) [Compound 104, 2,2′,2″-(10-(14-(3-((4R,Z)-9-amino-4-((4-hydroxybenzyl)carbamoyl)-2,11,16-trioxo-1-phenyl-3,8,10,12,15-pentaazaoctadec-9-en-1-yl)phenoxy)-2-oxo-6,9,12-trioxa-3-azatetradecyl)-1,4,7,10-tetraazacyclododecane-1,4,7-triyl)triacetic acid], for which the Ki under setting [1] was less than 10 nM.
As for `CCCCCCCCCCCCCCCC(=O)N[C@@H](CCC(=O)N[C@@H](CCCCNC(=O)CN1CCN(CC(=O)O)CCN(CC(=O)O)CCN(CC(=O)O)CC1)C(=O)NCCCCOc1cccc(C(C(=O)N[C@H](CCCN/C(N)=N\C(=O)NCCNC(=O)CC)C(=O)NCc2ccc(O)cc2)c2ccccc2)c1)C(=O)O` (stereo partly drawn) [Compound 122, (2S)-4-{[(1S)-1-({4-[3-({[(1R)-4-{[(Z)-amino({[(2-propanamidoethyl)-carbamoyl]imino})methyl]amino}-1-{[(4-hydroxyphenyl)methyl]carbamoyl}butyl]-carbamoyl}(phenyl)methyl)phenoxy]butyl}carbamoyl)-5-{2-[4,7,10-tris(carboxymethyl)-1,4,7,10-tetraazacyclododecan-1-yl]acetamido}pentyl]carbamoyl}-2-hexadecanamidobutanoic acid], under setting [2], the inhibition constant (Ki) was less than 10 nM.
As to `CCC(=O)NCCNC(=O)/N=C(/N)NCCC[C@@H](NC(=O)C(c1ccccc1)c1cccc(OCCCCNC(=O)[C@@H](CO)NC(=O)CCNC(=O)CN2CCN(CC(=O)O)CCN(CC(=O)O)CCN(CC(=O)O)CC2)c1)C(=O)NCc1c(F)cc(O)cc1F` (single isomer, unassigned) [Compound 165B], the inhibition constant Ki under setting [2] was less than 10 nM.
The same measure, in the same setting: for `CCC(=O)NCCNC(=O)/N=C(/N)NCCC[C@@H](NC(=O)C(c1ccccc1)c1cccc(NCCCNC(=O)CCOCCNC(=O)CN2CCN(CC(=O)O)CCN(CC(=O)O)CCN(CC(=O)O)CC2)c1)C(=O)NCc1ccc(O)cc1` (single isomer, unassigned) [Compound 121A] the value was less than 10 nM.
As to `N=C(N)NCCC[C@@H](NC(=O)C(c1ccccc1)c1cccc(OCCOCCOCCOCCOCCNC(=O)CN2CCN(CC(=O)O)CCN(CC(=O)O)CCN(CC(=O)O)CC2)c1)C(=O)NCc1ccc(CNC(N)=O)cc1` (stereo partly drawn) [Compound 113A, 2,2′,2″-(10-(17-(3-(2-(((R)-5-guanidino-1-oxo-1-((4-(ureidomethyl)benzyl)amino)pentan-2-yl)amino)-2-oxo-1-phenylethyl)phenoxy)-2-oxo-6,9,12,15-tetraoxa-3-azaheptadecyl)-1,4,7,10-tetraazacyclododecane-1,4,7-triyl)triacetic acid—2,2,2-trifluoroacetic acid (1/1)], under setting [1], the inhibition constant Ki is more than 100 nM.
Consider `CCC(=O)NCCNC(=O)/N=C(/N)NCCC[C@@H](NC(=O)C(c1ccccc1)c1ccc(NCCCNC(=O)CCCCCNC(=O)CN2CCN(CC(=O)O)CCN(CC(=O)O)CCN(CC(=O)O)CC2)cc1)C(=O)NCc1ccc(O)cc1` (single isomer, unassigned) [Compound 154], for which the Ki under setting [2] was less than 10 nM.
Same read-out and setting: for `CCC(=O)NCCNC(=O)/N=C(/N)NCCC[C@@H](NC(=O)C(c1ccccc1)c1ccc(NCCNC(=O)[C@H](N)CCCNC(=O)CN2CCN(CC(=O)O)CCN(CC(=O)O)CCN(CC(=O)O)CC2)cc1)C(=O)NCc1ccc(O)cc1` (single isomer, unassigned) [Compound 144B] the value was less than 10 nM; for `CCC(=O)NCCNC(=O)/N=C(/N)NCCC[C@@H](NC(=O)C(c1ccccc1)c1ccc(NCCCNC(=O)[C@H](N)CCCNC(=O)CN2CCN(CC(=O)O)CCN(CC(=O)O)CCN(CC(=O)O)CC2)cc1)C(=O)NCc1ccc(O)cc1` (single isomer, unassigned) [Compound 135B], less than 10 nM.
Consider `CCC(=O)NCCNC(=O)/N=C(/N)NCCC[C@@H](NC(=O)C(c1ccccc1)c1cccc(OCCCCNC(=O)CN2CCN(C(=O)CN3CCN(CC(=O)O)CCN(CC(=O)O)CCN(CC(=O)O)CC3)CC2)c1)C(=O)NCc1ccc(O)cc1` (single isomer, unassigned) [Compound 118A], for which the inhibition constant Ki was less than 10 nM under setting [1] and less than 10 nM under setting [2].
`CCNC(=O)/N=C(/N)NCCC[C@@H](NC(=O)[C@@H](c1ccccc1)c1ccc(NCCCNC(=O)[C@H](N)CCCCNC(=O)CN2CCN(CC(=O)O)CCN(CC(=O)O)CCN(CC(=O)O)CC2)cc1)C(=O)NCc1ccc(O)cc1` (single isomer, unassigned) [Compound 144A]: the inhibition constant Ki under setting [2] is less than 10 nM.
On the same count and under the same terms, for `CCC(=O)NCCNC(=O)/N=C(/N)NCCC[C@@H](NC(=O)C(c1ccccc1)c1cccc(OCCCCNC(=O)CCCCCNC(=O)CN2CCN(CC(=O)O)CCN(CC(=O)O)CCN(CC(=O)O)CC2)c1)C(=O)NCc1c(F)cc(O)cc1F` (single isomer, unassigned) [Compound 161B] the value was less than 10 nM; for `CCC(=O)NCCNC(=O)/N=C(/N)NCCC[C@@H](NC(=O)C(c1ccccc1)c1cccc(OCCCCNC(=O)C[C@H]2NC(=O)[C@@H](CCCNC(=O)CN3CCN(CC(=O)O)CCN(CC(=O)O)CCN(CC(=O)O)CC3)NC2=O)c1)C(=O)NCc1c(F)cc(O)cc1F` (single isomer, unassigned) [Compound 164B], less than 10 nM; for `CCC(=O)NCCNC(=O)/N=C(/N)NCCC[C@@H](NC(=O)C(c1ccccc1)c1cccc(OCCCCNC(=O)CCCCCNC(=O)CN2CCN(CC(=O)O)CCN(CC(=O)O)CCN(CC(=O)O)CC2)c1)C(=O)NCc1ccc(O)cc1` (single isomer, unassigned) [Compound 140B], less than 10 nM.
Regarding `CCC(=O)NCCNC(=O)/N=C(/N)NCCC[C@@H](NC(=O)C(c1ccccc1)c1cccc(NCCCNC(=O)CCOCCNC(=O)CN2CCN(CC(=O)O)CCN(CC(=O)O)CCN(CC(=O)O)CC2)c1)C(=O)NCc1ccc(O)cc1` (single isomer, unassigned) [Compound 121B], under setting [2], the inhibitory constant (Ki) was less than 10 nM.

Usually Ki stands for a measure of affinity in units of concentration, obtained from inhibition or displacement.
